Laboratory results: patent publication US20260085053A1, “BENZOFURAN DERIVATIVES AS SIK INHIBITORS AND THE USE THEREOF” (BEONE MEDICINES I GMBH, priority 2023, published 2026)

Assays:
[1] = biological target: T1, SIK1 kinase (aa1-303, Thermo Fisher) (Homo sapiens, UniProt P57059); assay: Biochemical activities determination for SIK1 protein (TR-FRET); conditions: 110 uM ATP, 0.5 μM STK1 substrate
T1 construct: SIK1 kinase (aa1-303, Thermo Fisher); purchased Thermo Fisher
In short: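 TR-FRET kinase assay with SIK1 (aa1-303), 110 uM ATP, 0.5 μM STK1 substrate and 0-10 μM compound in Tris pH 7.5 with MgCl2, EGTA, DTT, Triton X-100. Enzyme preincubated with compound 60 min, reaction 180 min at room temperature; 665/620 nm ratio after overnight detection; IC50 from four-parameter logistic fit.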

[2] = biological target: T2, SIK2 kinase (full length, Thermo Fisher) (Homo sapiens, UniProt Q9H0K1); assay: Biochemical activities determination for SIK2 protein (TR-FRET); conditions: 80 uM ATP, 0.5 μM substrate
T2 construct: SIK2 kinase (full length, Thermo Fisher); purchased Thermo Fisher
T2 sequence (Q9H0K1 whole entry): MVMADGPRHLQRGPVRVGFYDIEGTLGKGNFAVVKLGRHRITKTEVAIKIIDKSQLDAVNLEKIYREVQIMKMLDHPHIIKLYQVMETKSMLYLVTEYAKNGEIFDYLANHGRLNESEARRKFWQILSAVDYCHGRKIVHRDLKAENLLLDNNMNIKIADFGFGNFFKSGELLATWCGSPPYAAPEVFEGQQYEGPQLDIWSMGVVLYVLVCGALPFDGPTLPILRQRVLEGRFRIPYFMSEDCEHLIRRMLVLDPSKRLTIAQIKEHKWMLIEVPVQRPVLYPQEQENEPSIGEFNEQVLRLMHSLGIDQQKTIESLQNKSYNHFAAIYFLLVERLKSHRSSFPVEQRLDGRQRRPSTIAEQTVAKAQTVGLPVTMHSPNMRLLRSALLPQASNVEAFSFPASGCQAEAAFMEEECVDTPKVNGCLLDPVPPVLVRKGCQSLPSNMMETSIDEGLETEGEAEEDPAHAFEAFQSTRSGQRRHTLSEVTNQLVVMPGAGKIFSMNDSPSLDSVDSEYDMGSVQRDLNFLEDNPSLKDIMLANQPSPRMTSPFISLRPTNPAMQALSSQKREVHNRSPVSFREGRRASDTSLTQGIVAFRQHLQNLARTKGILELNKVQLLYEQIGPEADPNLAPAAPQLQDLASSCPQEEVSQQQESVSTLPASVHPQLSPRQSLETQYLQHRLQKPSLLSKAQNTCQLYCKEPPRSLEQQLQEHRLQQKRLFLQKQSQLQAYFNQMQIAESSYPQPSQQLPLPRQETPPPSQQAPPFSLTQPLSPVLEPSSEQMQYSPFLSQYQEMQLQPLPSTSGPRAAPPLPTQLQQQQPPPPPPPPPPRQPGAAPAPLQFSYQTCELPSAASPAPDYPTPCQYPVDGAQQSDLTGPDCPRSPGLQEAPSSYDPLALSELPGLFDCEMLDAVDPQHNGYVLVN
In short: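 Full-length SIK2 preincubated 60 min with 0–10 μM compound, then reacted 180 min at room temperature with 80 uM ATP and 0.5 μM biotinylated substrate (pH 7.5 Tris/MgCl2 buffer). Phosphorylation detected by TR-FRET (665/620 nm ratio, cryptate antibody/streptavidin-XL665) after overnight incubation; IC50 from four-parameter logistic fit.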

[3] = biological target: T3, SIK3 kinase (aa59-365, Thermo Fisher) (Homo sapiens, UniProt Q9Y2K2); assay: Biochemical activities determination for SIK3 protein (TR-FRET); conditions: 125 uM ATP, 0.5 μM STK1 substrate
T3 construct: SIK3 kinase (aa59-365, Thermo Fisher); purchased Thermo Fisher
T3 sequence (Q9Y2K2 59-365): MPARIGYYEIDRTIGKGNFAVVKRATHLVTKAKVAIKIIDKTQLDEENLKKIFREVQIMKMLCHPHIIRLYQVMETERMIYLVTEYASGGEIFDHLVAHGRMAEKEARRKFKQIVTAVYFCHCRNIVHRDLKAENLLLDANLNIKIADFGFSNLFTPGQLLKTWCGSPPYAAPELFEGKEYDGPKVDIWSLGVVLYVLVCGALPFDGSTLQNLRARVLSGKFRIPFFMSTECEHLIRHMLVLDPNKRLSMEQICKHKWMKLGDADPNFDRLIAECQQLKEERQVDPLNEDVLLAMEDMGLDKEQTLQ
In short: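 SIK3 (aa59-365) was preincubated with compound (0-10 μM) for 60 min at room temperature in Tris buffer pH 7.5. The reaction was then started with 125 uM ATP and 0.5 μM STK1 substrate and run 180 min at room temperature. Phospho-substrate was detected by HTRF (665/620 nm ratio), and IC50 came from a four-parameter logistic fit.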

T1 sequence (P57059 1-303): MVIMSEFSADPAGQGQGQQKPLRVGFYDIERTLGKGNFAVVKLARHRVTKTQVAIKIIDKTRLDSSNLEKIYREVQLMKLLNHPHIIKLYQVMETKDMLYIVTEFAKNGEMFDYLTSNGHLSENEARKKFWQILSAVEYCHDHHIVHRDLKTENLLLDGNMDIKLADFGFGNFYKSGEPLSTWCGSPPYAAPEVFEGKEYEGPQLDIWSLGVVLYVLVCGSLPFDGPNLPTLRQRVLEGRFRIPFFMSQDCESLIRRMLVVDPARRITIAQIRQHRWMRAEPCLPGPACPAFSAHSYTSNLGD

IC50 [1] [nM] | IC50 [2] [nM] | IC50 [3] [nM] | Structure (SMILES)
671 | 14 | 60 | COc1cc(-c2coc3cc(-c4cn(C)cn4)ccc23)cc2c1C(=O)N(CC(F)(F)F)CC2 [Example 7, 8-methoxy-6-(6-(1-methyl-1H-imidazol-4-yl)benzofuran-3-yl)-2-(2,2,2-trifluoroethyl)-3,4-dihydroisoquinolin-1 (2H)-one]
> 10000 | 197 | 304 | COc1cc(-c2coc3cc(-c4ccc(C)nn4)ccc23)cc2c1C(=O)N(CC(F)(F)F)CC2 [Example 8, 8-methoxy-6-(6-(6-methylpyridazin-3-yl)benzofuran-3-yl)-2-(2,2,2-trifluoroethyl)-3,4-dihydroisoquinolin-1 (2H)-one]
> 10000 | 296 | 334 | COc1ccc(-c2ccc3c(-c4cc5c(c(OC)c4)C(=O)N(CC(F)(F)F)CC5)coc3c2)cn1 [Example 9, 8-methoxy-6-(6-(6-methoxypyridin-3-yl)benzofuran-3-yl)-2-(2,2,2-trifluoroethyl)-3,4-dihydroisoquinolin-1 (2H)-one]
> 10000 | 418 | 187 | COc1cc(-c2coc3cc(-c4cnnc(C)c4)ccc23)cc2c1C(=O)N(CC(F)(F)F)CC2 [Example 10, 8-methoxy-6-(6-(6-methylpyridazin-4-yl)benzofuran-3-yl)-2-(2,2,2-trifluoroethyl)-3,4-dihydroisoquinolin-1 (2H)-one]
1550 | 49 | 155 | COc1cc(-c2coc3cc(-c4cnn(C)c4)cc(F)c23)cc2c1C(=O)N(CC(F)(F)F)CC2 [Example 11, 6-(4-fluoro-6-(1-methyl-1H-pyrazol-4-yl)benzofuran-3-yl)-8-methoxy-2-(2,2,2-trifluoroethyl)-3,4-dihydroisoquinolin-1 (2H)-one]
2280 | 59 | 186 | COc1cc(-c2coc3cc(-c4cnn(C)c4)c(F)cc23)cc2c1C(=O)N(CC(F)(F)F)CC2 [Example 12, 6-(5-fluoro-6-(1-methyl-1H-pyrazol-4-yl)benzofuran-3-yl)-8-methoxy-2-(2,2,2-trifluoroethyl)-3,4-dihydroisoquinolin-1 (2H)-one]
647 | 25 | 54 | Cn1cc(-c2ccc3c(-c4cc5c(c(OC(F)F)c4)C(=O)N(CC(F)(F)F)CC5)coc3c2)cn1 [Example 13, 8-(difluoromethoxy)-6-(6-(1-methyl-1H-pyrazol-4-yl)benzofuran-3-yl)-2-(2,2,2-trifluoroethyl)-3,4-dihydroisoquinolin-1 (2H)-one]
> 10000 | 310 | 329 | Cc1ccc(-c2ccc3c(-c4cc5c(c(OC(F)F)c4)C(=O)N(CC(F)(F)F)CC5)coc3c2)nn1 [Example 14, 8-(difluoromethoxy)-6-(6-(6-methylpyridazin-3-yl)benzofuran-3-yl)-2-(2,2,2-trifluoroethyl)-3,4-dihydroisoquinolin-1 (2H)-one]
